Data on 16 molecules can be found in patent publication US20250114338A1, “TETRAHYDRO-PYRIDO[3,4-b]INDOLE ESTROGEN RECEPTOR MODULATORS AND USES THEREOF” (Genentech, Inc., priority 2014, published 2025).

Assay [1] has as its target estrogen receptor alpha (ESR1) in MCF7 breast cancer cells (Homo sapiens (Human), UniProt P03372). The assay is described as follows: Breast Cancer Cell ERa High Content Fluorescence Imaging Degradation Assay (Example 901). The assay is classed as cell-based. As to conditions: 4 hours, plateau of maximal effect, 0% = DMSO, 100% change = 5 nM Fulvestrant. As for the experimental part: Where more than one name is associated with a Formula I compound or intermediate, the chemical structure shall define the compound. […] Cell plates were incubated at 37° C., for 4 hours. Fixation and permeabilization were carried out using a Biotek EL406 plate washer and dispenser as follows. […] Well contents were aspirated and washed 3 times with 100 μL/well of PBS. […] Samples were incubated for 2 hours at room temperature. […] Samples were incubated for 2 hours at room temperature. […] Quantitative fluorescence imaging of ESR1 was carried out using a Cellomics Arrayscan V (Thermo). […] Channel 1 (DNA stain) was used to define the nuclear region (Circ). […] The “Robust Fit” method was used to define the inflexion point of curve (EC50) and the plateau of the maximal effect (Sinf).

For a further assay, the system named is ER-alpha MCF7. The assay is described as follows: ER-alpha MCF7 HCS EC50; stated as measured by in vitro cell proliferation assays of Examples 902 and 903. It counts as cell-based. As to conditions: Homo sapiens, Table 1. Summed up:
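MCF7 cells seeded 1000-2000 cells/well for 16 h, then treated with nine-point 1:2 DMSO dilution series in quadruplicate at 37 °C, 5% CO2 for 4 days. Viable cells quantified by CellTiter-Glo ATP luminescence; EC50 calculated. Controls: fulvestrant at final 100 nM, DMSO 0.2% v/v.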

Molecules are shown by their SMILES.

Chain of estrogen receptor alpha (ESR1) in MCF7 breast cancer cells (P03372 whole entry): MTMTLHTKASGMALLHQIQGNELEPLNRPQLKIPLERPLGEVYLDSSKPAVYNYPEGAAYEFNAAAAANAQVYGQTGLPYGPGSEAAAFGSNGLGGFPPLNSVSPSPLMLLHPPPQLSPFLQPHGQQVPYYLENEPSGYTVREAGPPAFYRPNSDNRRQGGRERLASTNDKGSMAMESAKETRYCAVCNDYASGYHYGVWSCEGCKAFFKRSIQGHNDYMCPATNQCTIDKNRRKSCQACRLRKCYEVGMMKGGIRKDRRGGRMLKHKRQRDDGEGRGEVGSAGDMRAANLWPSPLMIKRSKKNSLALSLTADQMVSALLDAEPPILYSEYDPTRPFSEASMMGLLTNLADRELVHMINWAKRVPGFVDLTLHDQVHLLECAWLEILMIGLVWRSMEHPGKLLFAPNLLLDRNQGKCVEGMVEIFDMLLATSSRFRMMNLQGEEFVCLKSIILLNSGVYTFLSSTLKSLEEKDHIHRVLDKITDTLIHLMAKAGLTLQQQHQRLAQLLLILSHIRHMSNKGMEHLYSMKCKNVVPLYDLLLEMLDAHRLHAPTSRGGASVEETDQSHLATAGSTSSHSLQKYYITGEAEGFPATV

As to `CC(C)C(=O)N1[C@H](c2c(F)cc(OCCN3CC(CF)C3)cc2F)c2[nH]c3ccccc3c2C[C@H]1C` [Example 103, 1-((1R,3R)-1-(2,6-difluoro-4-(2-(3-(fluoromethyl)azetidin-1-yl)ethoxy)phenyl)-3-methyl-3,4-dihydro-1H-pyrido[3,4-b]indol-2(9H)-yl)-2-methylpropan-1-one], in assay [1], the “ER-alpha MCF7 HCS Sinf (%)” value is given as −91.8%. For the same molecule, the concentration giving a half-maximal response (EC50) in the assay with ER-alpha MCF7 (MCF7 cells) came to 0.11 nM.
Regarding `C[C@@H]1Cc2c([nH]c3ccccc23)[C@@H](c2c(F)cc(OC[C@H](C)N3CC[C@@H](CF)C3)cc2F)N1CC(C)(C)F` [Example 108, (1R,3R)-1-(2,6-difluoro-4-((S)-2-((R)-3-(fluoromethyl)pyrrolidin-1-yl)propoxy)phenyl)-2-(2-fluoro-2-methylpropyl)-3-methyl-2,3,4,9-tetrahydro-1H-pyrido[3,4-b]indole], in assay [1], the “ER-alpha MCF7 HCS Sinf (%)” value was −79.3%.
The same measure, in the same setting: the result for `C[C@@H]1Cc2c([nH]c3ccccc23)[C@@H](c2c(F)cc(OCCN3CC[C@@H](CF)C3)cc2F)N1CC(C)(C)F` [Example 109, (1R,3R)-1-(2,6-difluoro-4-(2-((R)-3-(fluoromethyl)pyrrolidin-1-yl)ethoxy)phenyl)-2-(2-fluoro-2-methylpropyl)-3-methyl-2,3,4,9-tetrahydro-1H-pyrido[3,4-b]indole] reads −86.5%.
On to `C[C@@H]1Cc2c([nH]c3ccccc23)[C@@H](c2c(F)cc(OCCN3CC(CF)C3)cc2F)N1CC1CCC1` [Example 113, (1R,3R)-2-(cyclobutylmethyl)-1-(2,6-difluoro-4-(2-(3-(fluoromethyl)azetidin-1-yl)ethoxy)phenyl)-3-methyl-2,3,4,9-tetrahydro-1H-pyrido[3,4-b]indole], for which, in assay [1], the “ER-alpha MCF7 HCS Sinf (%)” value was −94.8%. Moreover, the EC50 in the assay on ER-alpha MCF7 (MCF7, MCF7 cells) was 6.18 nM.
The corresponding values for `C[C@@H]1Cc2c([nH]c3ccccc23)[C@@H](c2c(F)cc(OCCN3CC(CF)C3)cc2F)N1CC1COC1` [Example 115, (1R,3R)-1-(2,6-difluoro-4-(2-(3-(fluoromethyl)azetidin-1-yl)ethoxy)phenyl)-3-methyl-2-(oxetan-3-ylmethyl)-2,3,4,9-tetrahydro-1H-pyrido[3,4-b]indole] are −95.5% and 23.1 nM.
For the molecule `C[C@@H]1Cc2c([nH]c3ccccc23)[C@@H](c2c(F)cc(OCCN3CC(CF)C3)cc2F)N1C1COC1` [Example 116, (1R,3R)-1-(2,6-difluoro-4-(2-(3-(fluoromethyl)azetidin-1-yl)ethoxy)phenyl)-3-methyl-2-(oxetan-3-yl)-2,3,4,9-tetrahydro-1H-pyrido[3,4-b]indole], the “ER-alpha MCF7 HCS Sinf (%)” value in assay [1] is −85%. Also, in the assay with ER-alpha MCF7 (MCF7, MCF7 cells), the half-maximal effective concentration (EC50) stood at 41.4 nM.
Regarding `C[C@@H]1Cc2c([nH]c3ccccc23)[C@@H](c2c(F)cc(OCCN3CCCC3)cc2F)N1CC(C)(C)F` [Example 117, (1R,3R)-1-(2,6-difluoro-4-(2-(pyrrolidin-1-yl)ethoxy)phenyl)-2-(2-fluoro-2-methylpropyl)-3-methyl-2,3,4,9-tetrahydro-1H-pyrido[3,4-b]indole], the “ER-alpha MCF7 HCS Sinf (%)” value in assay [1] was −71.7%.
The same measure, in the same setting: under `C[C@@H]1Cc2c([nH]c3ccccc23)[C@@H](c2c(F)cc(OCCN3CCCCC3)cc2F)N1CC(C)(C)F` [Example 118, (1R,3R)-1-(2,6-difluoro-4-(2-(piperidin-1-yl)ethoxy)phenyl)-2-(2-fluoro-2-methylpropyl)-3-methyl-2,3,4,9-tetrahydro-1H-pyrido[3,4-b]indole] stands −72.2%; under `C[C@@H]1Cc2c([nH]c3ccccc23)[C@@H](c2c(F)cc(OCCN3CC(CO)C3)cc2F)N1CC(C)(C)F` [Example 119, (1-(2-(3,5-difluoro-4-((1R,3R)-2-(2-fluoro-2-methylpropyl)-3-methyl-2,3,4,9-tetrahydro-1H-pyrido[3,4-b]indol-1-yl)phenoxy)ethyl)azetidin-3-yl)methanol], −71.3%.
For `C[C@@H]1Cc2c([nH]c3ccccc23)[C@@H](c2ccc(OCCN3CC(CF)C3)cc2F)N1CC(C)(C)F` [Example 120, (1R,3R)-2-(2-fluoro-2-methylpropyl)-1-(2-fluoro-4-(2-(3-(fluoromethyl)azetidin-1-yl)ethoxy)phenyl)-3-methyl-2,3,4,9-tetrahydro-1H-pyrido[3,4-b]indole], the “ER-alpha MCF7 HCS Sinf (%)” value in assay [1] was −96.3%. Also, the concentration for a half-maximal effect (EC50) in the assay with ER-alpha MCF7 (MCF7, MCF7 cells) came out at 0.0562 nM.
As for `CC(=O)N1[C@H](c2c(F)cc(OCCN3CC(CF)C3)cc2F)c2[nH]c3ccccc3c2C[C@H]1C` [Example 121, 1-((1R,3R)-1-(2,6-difluoro-4-(2-(3-(fluoromethyl)azetidin-1-yl)ethoxy)phenyl)-3-methyl-3,4-dihydro-1H-pyrido[3,4-b]indol-2(9H)-yl)ethanone], the “ER-alpha MCF7 HCS Sinf (%)” value in assay [1] was −91%.
On to `C[C@@H]1Cc2c([nH]c3ccccc23)[C@@H](c2c(F)cc(OCCN3CC(CF)C3)cc2F)N1C(=O)C(C)(C)O` [Example 122, 1-((1R,3R)-1-(2,6-difluoro-4-(2-(3-(fluoromethyl)azetidin-1-yl)ethoxy)phenyl)-3-methyl-3,4-dihydro-1H-pyrido[3,4-b]indol-2(9H)-yl)-2-hydroxy-2-methylpropan-1-one], for which, in assay [1], the “ER-alpha MCF7 HCS Sinf (%)” value is on record as −97.8%. In addition, the EC50 with ER-alpha MCF7 (MCF7, MCF7 cells) stood at 1.4 nM.
The corresponding values for `C[C@@H](CO)CN1[C@H](c2c(F)cc(OCCN3CC(CF)C3)cc2F)c2[nH]c3ccccc3c2C[C@H]1C` [Example 123, (R)-3-((1R,3R)-1-(2,6-difluoro-4-(2-(3-(fluoromethyl)azetidin-1-yl)ethoxy)phenyl)-3-methyl-3,4-dihydro-1H-pyrido[3,4-b]indol-2(9H)-yl)-2-methylpropan-1-ol] are −96.1% and 1.04 nM.
For `C[C@@H]1Cc2c([nH]c3ccccc23)[C@@H](c2c(F)cc(OCCN3CC(CF)C3)cc2F)N1C(=O)C1CC(O)C1` (stereo partly drawn) [Example 124, ((1R,3R)-1-(2,6-difluoro-4-(2-(3-(fluoromethyl)azetidin-1-yl)ethoxy)phenyl)-3-methyl-3,4-dihydro-1H-pyrido[3,4-b]indol-2(9H)-yl)((1s,3S)-3-hydroxycyclobutyl) methanone], the “ER-alpha MCF7 HCS Sinf (%)” value in assay [1] is on record as −75%. The EC50 in the assay on ER-alpha MCF7 (MCF7, MCF7 cells) was found to be 135 nM.
The corresponding values for `CC(C)C(=O)N1C(c2c(F)cc(OCCN3CC(CF)C3)cc2F)c2[nH]c3ccccc3c2CC1(C)C` (stereo not shown) [Example 125, 1-(1-(2,6-difluoro-4-(2-(3-(fluoromethyl)azetidin-1-yl)ethoxy)phenyl)-3,3-dimethyl-3,4-dihydro-1H-pyrido[3,4-b]indol-2(9H)-yl)-2-methylpropan-1-one] are −90% and 74.4 nM.
As for `C[C@@H]1Cc2c([nH]c3ccccc23)[C@@H](c2c(F)cc(OCCN3CC(CF)C3)cc2F)N1S(C)(=O)=O` [Example 126, (1R,3R)-1-(2,6-difluoro-4-(2-(3-(fluoromethyl)azetidin-1-yl)ethoxy)phenyl)-3-methyl-2-(methylsulfonyl)-2,3,4,9-tetrahydro-1H-pyrido[3,4-b]indole], in assay [1], the “ER-alpha MCF7 HCS Sinf (%)” value is on record as −94.4%.

As a reminder, the EC50 is the concentration at which the effect is half-maximal.
